# Data as given in patent US20140257169A1, “USE OF PHOTO[…] PREPARATION OF VIRUS-INACTIVATING MEDICAMENTS FOR TREATING DISEASES” (Beijing Ecyber Medical Technology R & D Center Co. , Ltd., priority 2013, published 2014).
# System: thoracic aorta blood vessel plaque
# Conditions: high fat/high cholesterol fed rabbit; 5-ALA 80 mg/kg intraperitoneal 1.5 h before; substrate (carbamide peroxide) intravenously infused; irradiation once with 5 Gy; examined on the seventh day
# Source text: The New-Zealand rabbit model of blood vessel plaque is a common animal experimental model. […] The blood vessel plaque was taken as the target region and positioned, and a radiotherapy plan was made.
compound,measurement,value
NCC(=O)CCC(=O)O [5-ALA],regression of thoracic aorta blood vessel plaque (CTA angiography and MR),completely disappeared
